Source: patent US5101027A, “Synthesis of mannojirimycin derivatives” (Monsanto Company, priority 1990, dated 1992)

Experiments:
[1] = system: human liver α-fucosidase; conditions: literature; compared with deoxyfuconojirimycin (4); cited from earlier work
[2] = system: α-mannosidases; conditions: literature; cited from earlier work
[3] = system: β-mannosidase; assay: inhibition of human liver β-mannosidase; type: biochemical
From the text: (§1) The relative potencies of these compounds as fucosidase inhibitors may be understood by considering them as analogues of α-L-fucose; all three compounds have the correct chirality of the secondary hydroxyl groups--the minimum requirement for inhibition of α-fucosidase. […] All the compounds are weaker inhibitors of α-fucosidase than is deoxyfuconojirimycin, since they all lack a lipophilic methyl substituent with correct configuration.

[4] = target: T1, α-Fucosidase (Homo sapiens, UniProt P04066); assay: % inhibition of human liver α-fucosidase catalysed hydrolysis; type: biochemical
T1 construct: from tissue; host or cells: human liver
T1 sequence (P04066 32-466): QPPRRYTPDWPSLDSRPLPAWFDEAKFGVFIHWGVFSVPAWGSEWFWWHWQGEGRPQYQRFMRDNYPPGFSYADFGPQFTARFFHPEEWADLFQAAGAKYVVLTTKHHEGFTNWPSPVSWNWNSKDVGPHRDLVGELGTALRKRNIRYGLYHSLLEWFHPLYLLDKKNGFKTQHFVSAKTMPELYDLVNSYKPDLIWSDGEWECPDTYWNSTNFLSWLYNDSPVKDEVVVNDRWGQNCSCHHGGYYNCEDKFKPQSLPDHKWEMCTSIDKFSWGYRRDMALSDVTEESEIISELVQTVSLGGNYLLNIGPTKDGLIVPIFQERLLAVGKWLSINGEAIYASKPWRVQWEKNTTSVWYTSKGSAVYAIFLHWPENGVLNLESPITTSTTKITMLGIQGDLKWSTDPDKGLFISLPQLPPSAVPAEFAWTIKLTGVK
Protocol: % Inhibition of human liver α-fucosidase and α-mannosidase
catalysed hydrolysis of 4-umbelliferyl pyrranosides at
1 mM concentration of inhibitor

[5] = system: human α-mannosidases; assay: inhibition of human liver α-mannosidases (summary of lysosomal, Golgi II and neutral); type: biochemical; conditions: for specificity and potency of inhibition of human α-mannosidases, HMJ compared with DMJ: HMJ (6) vs DMJ (5)
From the text: as §1

[6] = system: α-glucosidase; conditions: literature; cited from earlier work

| inhibition of α-fucosidase (in words) [4] | Structure (SMILES) | inhibition of β-mannosidase (in words) [3] | specificity and potency of inhibition of human α-mannosidases, HMJ compared with DMJ [5] | further results |
| --- | --- | --- | --- | --- |
|  | C[C@@H]1N[C@H](CO)[C@@H](O)[C@H](O)[C@@H]1O [homofuconojirimycin (3), homofuconojirimycin] |  |  | inhibition of human liver α-fucosidase relative to deoxyfuconojirimycin (4) [1]: as powerful an inhibitor of human liver α-fucosidase as is deoxyfuconojirimycin (4) |
| powerful inhibitors of α-fucosidase | OC[C@@H]1N[C@H](CO)[C@@H](O)[C@@H](O)[C@@H]1O [6-Epi-homomannojirimycin (8), 2,6-dideoxy-2,6-imino-L-glycero-D-talo-heptitol] |  |  | inhibition of α-mannosidases (in words) [5]: did not inhibit any α-mannosidase |
|  | OC[C@H]1N[C@H](CO[C@@H]2O[C@H](CO)[C@@H](O)[C@H](O)[C@H]2O)[C@H](O)[C@@H](O)[C@@H]1O [β-glucopyranosyl derivative (2)] |  |  | α-glucosidase inhibition (in words) [6]: powerful α-glucosidase inhibitor |
| only a weak inhibitor of this enzyme | OC[C@H]1N[C@H](CO)[C@@H](O)C(O)[C@@H]1O (stereo partly drawn) [Homomannojirimycin (6), 2,6-dideoxy-2,6-imino-D-glycero-D-talo-heptitol] | Neither compound inhibited β-mannosidase | very similar |  |

| Structure (SMILES) | inhibition of α-fucosidase (in words) [4] | inhibition of β-mannosidase (in words) [3] | specificity and potency of inhibition of human α-mannosidases, HMJ compared with DMJ [5] | further results |
| --- | --- | --- | --- | --- |
| OC[C@H]1NC[C@@H](O)[C@@H](O)[C@@H]1O [Deoxymannojirimycin (5), Deoxymannojirimycin] | powerful inhibitors of α-fucosidase | Neither compound inhibited β-mannosidase | very similar | inhibition of α-mannosidases in general (in words) [2]: relatively weak inhibitor of α-mannosidases in general |
